Assay results: patent US20240150809A1, “Method of Evaluating the Biofilm Detachment Efficacy of Compositions” (Colgate-Palmolive Company, priority 2021, published 2024)

Tested on: S. gordonii biofilms
Experiment: adapted spinning-disc rheometry analysis of biofilm detachment
Assay type: cell-based, Streptococcus gordonii
Conditions: for biofilm momentum coefficient (CB): 200-300 rad·s^−1, vs untreated; for area under the curve (AUC) of the torque-angular velocity curves: whole analyzed range
Description: Spinning-disc rheology was adapted to analyze biofilm detachment from surfaces. S. gordonii biofilms were grown on 3D printed coupons for 5 days. The model for the coupons was designed in SolidWorks (Dassault Systèmes). Coupons were 3D printed using a Prime 30 PolyJet 3D printer (Objet, Stratasys) using RGD720 photopolymer for the printing material (Stratasys). The coupon was printed at a resolution of 0.0008 inches. The coupon surface was sanded used P300 sandpaper to create a rougher surface for bacteria to attach. Prior to inoculating, coupons were sterilized in 70% ethanol.
S. gordonii wild type strain DL1 was used in this study. Overnight cultures were prepared by inoculating 10 mL of brain heart infusion broth (Oxoid; BHI) with a colony of S. gordonii and incubated statically overnight at 37° C. with 5% CO2. Sterile 40 mm coupons were placed in a Petri dish containing 40 mL BHI, supplemented with 0.5% sucrose. Coupons were inoculated with 400 μL of overnight culture. Biofilms were incubated in a humidified chamber at 37° C. with 5% CO2, on an orbital shaker at 150 rpm. Every 24 h the media was replenished. […]
Biofilms were analyzed on a Discovery Hybrid Rheometer-2 (HD-2) (TA Instruments). A 15×15 cm square clear acrylic container filled with 2.8 L reverse osmosis water was transferred onto the Peltier plate. Biofilm-coated coupons were immersed and attached to the rheometer shaft using a custom-made adapter probe. The gap distance between the bottom of the container and the coupon was set to 3.5 cm (FIG. 1). Immersed coupons were spun at an angular velocity (ω) range of 0.1-300 rad·s^−1, incrementing the speed over 360 seconds, and the resulting torque (T), a measurement of resistance to rotation, was measured across this velocity range.
Data was collected using TRIOS v5 software (TA instruments), with raw data exported in excel. Data was transformed, and calculations performed in excel. Data was visualized and statistical analysis performed in GraphPad Prism v8 (GraphPad Software). All statistical comparisons were performed using a Student's t-test, with p<0.05 indicating significance.
To more easily observe the changes in torque associated with biofilm detachment, the torque-angular velocity data was linearized and transformed. The data was linearized by taking the square root of the torque. The running slope of 5 data points of the linearized data was determined. […] Therefore, final transformed data is presented as the running slope of the linearized data against angular velocity, starting at 20 rad·s^−1.
Five day S. gordonii biofilms were treated with either PBS (untreated control) or 4% arginine for 2 min. […] After treatment, Biofilms were analyzed on a Discovery Hybrid Rheometer-2 (HD-2) (TA Instruments) as described above. Four biological replicates were analyzed, each with 2-4 technical replicates (total N=11).
To quantify the mechanical differences between arginine treated and untreated S. gordonii biofilms, the biofilm momentum coefficient (CB) across the turbulent regimes of 200-300 rad·s^−1 was determined according to equation 1: […]
To quantify these differences, the angular velocity where the first reduction in torque occurred was converted to the shear stress acting on the outer edge of the coupon, according to equation 3.
Next, the biofilm disrupting effect of arginine was compared with that of glycine and lysine by the spinning-disc rheometry assay to determine if biofilm disrupting effect is a general property of amino acids, or specific to arginine.

[1] = 5 day S. gordonii biofilms, 4% arginine for 2 min, vs PBS untreated control
[2] = 5 day S. gordonii biofilms, 4% arginine for 2 min, vs untreated
[3] = Seven day S. gordonii biofilms, 4% arginine or 0.23M glycine or lysine for 2 min, equation 3, vs untreated
[4] = Seven day S. gordonii biofilms, 4% arginine or 0.23M glycine or lysine for 2 min, vs untreated

## N=C(N)NCCC[C@H](N)C(=O)O [arginine]
5 day S. gordonii biofilms, 4% arginine for 2 min, 0.1-300 rad·s^−1, vs untreated
  torque across angular velocity range: reduced torque
5 day S. gordonii biofilms, 4% arginine for 2 min
  biofilm momentum coefficient (CB): no statistical difference
5 day S. gordonii biofilms, 4% arginine for 2 min, equation 3, vs untreated
  shear stress at the first reduction in torque (initiation of detachment): significantly lower shear stresses
5 day S. gordonii biofilms, 4% arginine for 2 min, transformed analysis, vs untreated
  angular velocity at which changes in torque associated with biofilm detachment events occurred: lower angular velocity ranges
[1]
  amount of remaining biofilm attached to the coupon after rheometry analysis: did not appear to affect
  biofilm morphology (macroscopic): did not appear to affect
[2]
  changes in torque in transformed data (running slope of torque^1/2 vs angular velocity): greater changes in torque
  area under the curve (AUC) of the torque-angular velocity curves: significantly reduced AUC
Seven day S. gordonii biofilms, 4% arginine or 0.23M glycine or lysine for 2 min
  biofilm momentum coefficient (CB): significantly lower
[3]
  shear stress at the first reduction in torque (detachment shear stress): significantly lower shear stresses
[4]
  torque (torque-displacement profile): reduced torque
  area under the curve (AUC) of the torque-angular velocity curves: significantly reduced AUC

## NCC(=O)O [glycine, reference compound]
[3]
  shear stress at the first reduction in torque (detachment shear stress): no significant difference
[4]
  area under the curve (AUC) of the torque-angular velocity curves: no significant differences

## NCCCC[C@H](N)C(=O)O [lysine, reference compound]
[3]
  shear stress at the first reduction in torque (detachment shear stress): no significant difference
[4]
  area under the curve (AUC) of the torque-angular velocity curves: no significant differences
